Here are results for 6 molecules from patent publication US20220306585A1, “PYRAZOLE DERIVATIVES FOR CONTROLLING ARTHROPODS” (Bayer Animal Health GmbH, priority 2019, published 2022).

Data set [1] is described as follows: Measurement of stability of prodrugs in buffer at pH 7.4. The format is physicochemical. The settings on record: PBS buffer pH 7.4, 37° C., HPLC peak area, read-out: % Recovery after 24 h (stability at pH 7.4). On the procedure: Preparation of the PBS buffer solution pH 7.4: 90 g sodium chloride, 13.61 g potassium dihydrogen phosphate, 83.35 g 1M aqueous sodium hydroxide were dissolved in water. More water was added up to a total volume of 1 L. This solution was diluted 1:10 with water. Eventually, pH was adjusted to pH 7.4 by the addition of phosphoric acid.
Measurement of Stability of Prodrugs in Buffer at pH 7.4
0.15 mg of the test compound were dissolved in 0.1 mL dimethylsulfoxide and 0.4 mL acetonitrile. For complete dissolution, the HPLC vial with the sample solution was shaken and treated with ultrasound. Then, 1.0 mL of PBS buffer solution pH 7.4 was added and the sample was vortexed. The sample solution was analysed by HPLC (method 8) to determine the amount of the test compound at a particular time over a period of 24 h at 37° C. The peak areas, given as percentage of total area, are used for quantification. In addition, the reaction mixture was analysed by method 9 (HPLC-MS) at the final timepoint.

A short description of data set [2]: Measurement of solubility in buffer at pH 6.5. The settings on record: aqueous buffer, kinetic from dmso stock; PBS buffer pH 6.5, shaken 24 h at rt, LC-MSMS; read-out: Solubility of example compounds at pH 6.5. The format is physicochemical. The protocol:
Measurement of Solubility in Buffer at pH 6.5 2-4 mg of the test compound are dissolved in DMSO to reach a concentration of 50 g/L (solution A). To 10 μL of this solution 960 μL PBS buffer pH 6.5 are added (final concentration: […]); the mixture is shaken for 24 h at rt in a 96 well plate. An aliquot is centrifuged at 42000 rpm für 30 min. The supernatant is diluted with acetonitrile/water (8:2) 1:10 and 1:1000 resp. This diluted samples are analyzed by LC-MSMS. Calibration: 10 μL of solution A are diluted with 823 μL DMSO (final concentration: 600 μg/mL), which is further diluted with acetonitrile/water 8:2 by a factor of 100 (provides solution B). The calibration curve is obtained from solution B by further diluting with acetonitrile/water 8:2 with target concentrations of 1.2-12-60-600 ng/mL and injecting these four solutions for MS measurement. PBS-Puffer: 6.18 g sodium chloride and 3.96 g sodium dihydrogen phosphate are dissolved in 1 L aqua dist., the pH is adjusted to 6.5 with IN sodium hydroxide.

Data set [3] can be described thus: Degradation of prodrugs and release of parent drug in rat plasma. It is filed as in vitro ADME. The settings on record: male, Hannover-Janvier RjHan, rat plasma (Li-heparin), 37° C., percent area of prodrug at t0. On the procedure:
Measurement of Release of Parent Drug in Rat Plasma 1 mg of the test compound was dissolved in 0.5 mL acetonitrile/dimethylsulfoxide 9:1. For complete dissolution the HPLC vial was shaken and treated with ultrasound. 20 μL of this solution were added to 1 mL of rat plasma (Li-heparin plasma, Hannover-Janvier rat, RjHan male) with vortexing at a temperature of 37° C. Aliquots (100 μL each) were taken at 0.17, 0.5, 1, 1.5, 2 and 4 hours. Each aliquot was transferred to a vial containing 300 μL of acetonitrile/citric acid buffer pH 3 8:2. These solutions were centrifuged at 5000 rpm for 10 minutes. The supernatant was analysed by HPLC (Method 8) to determine the amount of the test compound. In addition, the reaction mixture was analysed by method 9 (HPLC-MS) at the final timepoint. Both decrease of the prodrug concentration and increase of parent drug concentration were monitored. All data is given as percent area of the prodrug at to.

Values after ≈ are worked out from the molar mass of the structure shown.

The term solubility denotes how much of the substance goes into solution per volume. `Cn1nc(C(F)(F)C(F)(F)F)c(C(F)(F)F)c1-n1cc(-c2ccc(Cl)c(C(=O)N(COC(=O)CC(C)(C)C(=O)O)C3(C#N)CC3)c2)cn1` [Example 2, 4-{[{2-Chloro-5-[2′-methyl-5′-(pentafluoroethyl)-4′-(trifluoromethyl)-2′H-[1,3′-bipyrazol]-4-yl]benzoyl}(1-cyanocyclopropyl)amino]methoxy}-2,2-dimethyl-4-oxobutanoic acid]: the recovery at 24 h, 0.1 mg/mL in data set [1] was 55%. For the same molecule, the solubility at 24 h in data set [2] is 71 µg/mL (≈ 99.9 µM).

On to `Cn1nc(C(F)(F)C(F)(F)F)c(C(F)(F)F)c1-n1cc(-c2ccc(Cl)c(C(=O)N(COC(=O)C3(C(=O)O)CC3)C3(C#N)CC3)c2)cn1` [Example 5, 1-({[{2-Chloro-5-[2′-methyl-5′-(pentafluoroethyl)-4′-(trifluoromethyl)-2′H-[1,3′-bipyrazol]-4-yl]benzoyl}(1-cyanocyclopropyl)amino]methoxy}carbonyl)cyclopropane-1-carboxylic acid], for which the recovery at 24 h, 0.1 mg/mL in data set [1] was 71%. For the same molecule, the solubility at 24 h in data set [2] was 171 µg/mL (≈ 246 µM).

Turning to `Cn1nc(C(F)(F)C(F)(F)F)c(C(F)(F)F)c1-n1cc(-c2ccc(Cl)c(C(=O)N(COC(=O)CCC(=O)O)C3(C#N)CC3)c2)cn1` [Example 6, 4-{[{2-Chloro-5-[2′-methyl-5′-(pentafluoroethyl)-4′-(trifluoromethyl)-2′H-[1,3′-bipyrazol]-4-yl]benzoyl}(1-cyanocyclopropyl)amino]methoxy}-4-oxobutanoic acid], the recovery at 24 h, 0.1 mg/mL in data set [1] worked out at 90%. Further, in data set [2], the solubility at 24 h was found to be 200 µg/mL (≈ 293 µM).

As to `Cn1nc(C(F)(F)C(F)(F)F)c(C(F)(F)F)c1-n1cc(-c2ccc(Cl)c(C(=O)N(COC(=O)/C=C/C(=O)O)C3(C#N)CC3)c2)cn1` [Example 7, (2E)-4-{[{2-Chloro-5-[2′-methyl-5′-(pentafluoroethyl)-4′-(trifluoromethyl)-2′H-[1,3′-bipyrazol]-4-yl]benzoyl}(1-cyanocyclopropyl)amino]methoxy}-4-oxobut-2-enoic acid], in data set [3], the recovery at 0.17 h, 39 µg/mL is 84%; the recovery at 0.5 h, 39 µg/mL is 58%; the recovery at 1 h, 39 µg/mL amounted to 26%; the recovery at 1.5 h, 39 µg/mL amounted to 10%. In data set [3], the recovery at 2 h, 39 µg/mL came to 4% and the recovery at 4 h, 39 µg/mL was determined as 0%. Moreover, in data set [1], the recovery at 24 h, 0.1 mg/mL stood at 96%.

In the case of `Cn1nc(C(F)(F)C(F)(F)F)c(C(F)(F)F)c1-n1cc(-c2ccc(Cl)c(C(=O)N(COC(=O)c3ccc(C(=O)O)cc3)C3(C#N)CC3)c2)cn1` [Example 10, 4-({[{2-Chloro-5-[2′-methyl-5′-(pentafluoroethyl)-4′-(trifluoromethyl)-2′H-[1,3′-bipyrazol]-4-yl]benzoyl}(1-cyanocyclopropyl)amino]methoxy}carbonyl)benzoic acid], in data set [3], the recovery at 0.17 h, 39 µg/mL came out at 99%; the recovery at 0.5 h, 39 µg/mL came out at 98%; the recovery at 1 h, 39 µg/mL was 96%; the recovery at 1.5 h, 39 µg/mL amounted to 94%. Besides, in data set [3], the recovery at 2 h, 39 µg/mL was determined as 92% and the recovery at 4 h, 39 µg/mL stood at 85%. Besides, in data set [1], the recovery at 24 h, 0.1 mg/mL was 100%. In data set [2], the solubility at 24 h was 31 µg/mL (≈ 42.4 µM).

`CC(C)(CC(=O)OCN(C(=O)c1cc(-c2cnn(-c3c(Cl)cc(C(F)(C(F)(F)F)C(F)(F)F)cc3OC(F)(F)F)c2)ccc1Cl)C1(C#N)CC1)C(=O)O` [Example 14, 4-{[(2-Chloro-5-{1-[2-chloro-4-(1,1,1,2,3,3,3-heptafluoropropan-2-yl)-6-(trifluoromethoxy)phenyl]-1H-pyrazol-4-yl}benzoyl)(1-cyanocyclopropyl)amino]methoxy}-2,2-dimethyl-4-oxobutanoic acid]: the recovery at 24 h, 0.1 mg/mL in data set [1] came to 63%. Besides, the solubility at 24 h in data set [2] was found to be 5 µg/mL (≈ 6.19 µM).
